Laboratory results reported in patent US9233092B2, “Compositions and methods for inhibiting gastric acid secretion using derivatives of small dicarboxylic acids in combination with PPI” (Vecta, Ltd., priority 2006, dated 2016).
“Also recorded” adds a separate entry of the source.

Tests used:
gastric acid secretion [1] = experiment: Stimulation of gastric acid secretion after oral administration, pylorus ligated 60 min after dosing, acid output by NaOH titration; format: in vivo; settings: rats, per os, SA 14.88 mg/kg, mS 16.65 mg/kg, dmS 17.65 mg/kg, gastric juice collected 30 min later
Method: Rats were administered (per os) with succinic acid (SA, 14.88 mg/kg), monomethylester of succinic acid (mS, 16.65 mg/kg) or dimethyl ester of succinic acid (dmS, 17.65 mg/kg) using gavage. 60 minutes later the rats were anesthetized with ketamine/domitor and the pylorus was ligated. Following additional 30 min, gastric juice was collected from the gastric lumen. Acid output was determined by titration with NaOH. Total acid output expressed in mEq HCl was calculated by multiplying the sample volume by the acid concentration. Results are expressed as means±SEM of 8 animals from each experimental group.

gastric acid secretion [2] = experiment: Conscious pylorus-ligated rats: effect of succinates on the activity of pantoprazole on gastric acid secretion; format: in vivo; settings: oral gavage, succinate (SA 14.88 mg/kg or dmS 17.65 mg/kg) given 30 min prior to pantoprazole, FIG. 2
Method: To further study the delayed or sustained enhancement effect of dimethyl ester of succinic acid on the activity of pantoprazole, an experimental model of conscious pylorus-ligated rats was used. This experimental model permits the analysis of the effect of drugs on gastric acid secretion in conscious animals and avoids the effect of anesthesia on gastric acid secretion. Pantoprazole alone ([…]) or in combination with succinic acid (SA, 14.88 mg/kg) or dimethyl ester of succinic acid (dmS, 17.65 mg/kg) were administered by oral gavage. The succinates were administered 30 min prior to the administration of pantoprazole in order to test the sustained or delayed effect of dimethyl ester of succinic acid compared to the non-derivatized succinic acid. 120 min post succinates administration, the animals were anesthetized using anesthetic gas machine for a short period (5 minutes) that is sufficient to perform the pylorus ligation procedure and to close the abdomen. The animals were then placed back into its cage for additional 110 min after which the animals were sacrificed. The ligature was placed around the esophagus, the stomach removed and gastric content was collected. Following centrifugation, the gastric output and the pH of the gastric juice samples was determined. Data is presented as mean±SEM of gastric output. The number of animals is 6-7 in each experimental group.

gastric acid output = settings: humans; Teyssen et al., J. Clin Invest. 1999; cited from earlier work

| Structure (SMILES) | gastric acid output (total acid output) (gastric acid secretion [1]; FIG. 1) | gastric acid output (total acid output) (gastric acid secretion [1]; FIG. 1, listed as succinic acid dimethyl ester) | enhancement of the effect of pantoprazole (PPI) on gastric acid output (gastric acid secretion [2]) | stimulation of gastric acid output (gastric acid output) |
| --- | --- | --- | --- | --- |
| COC(=O)CCC(=O)OC [dmS, dimethyl ester of succinic acid] | effective in enhancing gastric output | capable of enhancing gastric acid output even after 60 minutes from dosing | capable of enhancing the activity of pantoprazole on gastric acid secretion; also recorded: capable of enhancing the effect of PPI on gastric acid output | – |
| O=C(O)CCC(=O)O [SA, succinic acid, reference compound] | did not show an effect | – | only dimethyl ester of succinic acid was capable of enhancing the effect of PPI | powerful stimulants of gastric acid output |
| COC(=O)CCC(=O)O [mS, monomethylester of succinic acid] | effective in enhancing gastric output | – | – | – |
| O=C(O)/C=C\C(=O)O [Maleic acid] | – | – | – | powerful stimulants of gastric acid output |
